Where a chain is given by its changes, count along the chain named.
Key:
LuxN [1] = molecular target: T1, LuxN (Vibrio campbellii, UniProt A7MRY4); assay type: cell-based, Vibrio harveyi; details: for effect on light production (antagonist activity) / reduction in light production: 1 μM AHL with 20 nM AI-1, V. harveyi TL25; for mechanism of antagonism: IC50 values measured at various concentrations of AI-1
luxN^L166A/H210N = luxN^L166A/H210N (Vibrio campbellii, UniProt A7MRY4, H210N/L166A); details: AHLs added at 1 μM
LuxN [2] = molecular target: T1, LuxN; details: 1 μM AHL; V. harveyi TL25
LuxN^G147D/Y194H = molecular target: T2, LuxN^G147D/Y194H (Vibrio campbellii, UniProt A7MRY4, G147D/Y194H); experiment: Bioluminescence of V. harveyi XK006 carrying luxN G147D/Y194H; assay type: cell-based, Vibrio harveyi
T2 sequence (A7MRY4 1-849 G147D/Y194H): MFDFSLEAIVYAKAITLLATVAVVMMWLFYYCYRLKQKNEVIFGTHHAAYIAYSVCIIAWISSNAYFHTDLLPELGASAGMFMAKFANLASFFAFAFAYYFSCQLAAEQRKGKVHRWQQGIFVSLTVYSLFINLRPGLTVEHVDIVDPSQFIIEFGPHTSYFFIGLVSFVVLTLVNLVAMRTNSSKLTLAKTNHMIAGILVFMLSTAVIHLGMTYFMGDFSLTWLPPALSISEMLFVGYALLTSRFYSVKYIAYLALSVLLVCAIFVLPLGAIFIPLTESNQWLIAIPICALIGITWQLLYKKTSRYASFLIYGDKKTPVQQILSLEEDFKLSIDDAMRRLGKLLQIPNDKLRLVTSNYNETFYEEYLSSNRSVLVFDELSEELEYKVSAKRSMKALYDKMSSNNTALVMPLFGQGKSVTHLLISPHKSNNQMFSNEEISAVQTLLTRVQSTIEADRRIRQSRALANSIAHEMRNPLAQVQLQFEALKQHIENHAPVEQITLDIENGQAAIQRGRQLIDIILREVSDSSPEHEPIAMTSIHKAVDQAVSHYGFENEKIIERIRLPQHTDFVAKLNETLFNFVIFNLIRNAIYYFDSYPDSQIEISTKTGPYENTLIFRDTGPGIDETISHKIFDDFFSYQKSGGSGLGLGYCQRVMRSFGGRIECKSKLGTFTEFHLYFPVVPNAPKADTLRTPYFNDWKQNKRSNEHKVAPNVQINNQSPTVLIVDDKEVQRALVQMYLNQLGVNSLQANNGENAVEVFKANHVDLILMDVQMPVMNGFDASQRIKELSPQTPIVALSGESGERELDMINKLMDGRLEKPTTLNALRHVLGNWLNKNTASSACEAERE

luxN^S184I/S230P = molecular target: T3, luxN^S184I/S230P (Vibrio campbellii, UniProt A7MRY4, S184I/S230P); experiment: Bioluminescence of V. harveyi XK006 carrying luxN S184I/S230P; assay type: cell-based, Vibrio harveyi
T3 sequence (A7MRY4 1-849 S184I/S230P): T2 sequence (A7MRY4 1-849 G147D/Y194H) with D147G, S184I, H194Y, S230P

luxN^T159I/Y193K = molecular target: T4, luxN^T159I/Y193K (Vibrio campbellii, UniProt A7MRY4, N193K/T159I); experiment: Bioluminescence of V. harveyi XK006 carrying luxN T159I/Y193K; assay type: cell-based, Vibrio harveyi
T4 sequence (A7MRY4 1-849 T159I/N193K): T2 sequence (A7MRY4 1-849 G147D/Y194H) with D147G, T159I, N193K, H194Y

LuxN^H210N = molecular target: T5, LuxN^H210N (Vibrio campbellii, UniProt A7MRY4, H210N); experiment: Bioluminescence of V. harveyi XK006 carrying luxN H210N; assay type: cell-based, Vibrio harveyi; details: AHLs supplied at 10 μM
T5 sequence (A7MRY4 1-849 H210N): T2 sequence (A7MRY4 1-849 G147D/Y194H) with D147G, H194Y, H210N

LuxN^L166A = LuxN^L166A (Vibrio campbellii, UniProt A7MRY4, L166A)

For CCCC(O)CC(=O)N[C@H]1CCOC1=O (stereo partly drawn) [3OH-C6 HSL], the “effect on light production (antagonist activity)” value (LuxN [1]) was “little effect on light production”.

With CCCC(=O)CC(=O)NC1CCOC1=O (stereo not drawn) [3O-C6 HSL] the light production (luxN^L166A/H210N) was “detected”.

For CC(=O)CC(=O)NC1CCOC1=O (stereo not drawn) [3O-C4 HSL], the “induction of light production” value (LuxN [2]) was “did not induce light production” and the “effect on light production (antagonist activity)” value (LuxN [1]) was “did not decrease light production”.

With CCCCCCCCCCCC(=O)N[C@H]1CCOC1=O [C12 HSL] the “response (dose-dependent light production)” value (“response” below) (LuxN^G147D/Y194H) was “none responded”, the “response” value (luxN^S184I/S230P) was “none responded” and the “response” value (luxN^T159I/Y193K) was “none responded”.

In the case of CCCCCCCCCC(O)CC(=O)N[C@H]1CCOC1=O (stereo partly drawn) [3OH-C12 HSL], the “reduction in light production” value (LuxN [1]) is reported as 100 fold.

With CCCCCCCC(O)CC(=O)N[C@H]1CCOC1=O (stereo partly drawn) [3OH-C10 HSL] the “reduction in light production” value (LuxN [1]) was 30 fold.

phenoxy-thiolactone [PTL] was tested, and the mechanism of antagonism (LuxN [1]) was “behaved similarly to 3O-C12 HSL”.

CCCCCC(=O)N[C@H]1CCOC1=O [C6 HSL] was tested, and the light production (luxN^L166A/H210N) was “detected” and the “induction of light production” value (LuxN^H210N) was “activated modest light production”.

CCCCCC(=O)CC(=O)NC1CCOC1=O (stereo not drawn) [3O-C8 HSL] was tested, and the light production (luxN^L166A/H210N) was “produced maximal light” and the “detection (light production)” value (LuxN^L166A) was “only modest detection”.

In the case of CCCCCCCCCC(=O)N[C@H]1CCOC1=O [C10 HSL], the mechanism of antagonism (LuxN [1]) is reported as “behaved similarly to 3O-C12 HSL”.

— PMC4275348 (Molecular microbiology, 2014)
